Measured values published in patent US20210230203A1, “Amphiphilic Kanamycin Compositions and Methods” (priority 2020, published 2021).
Converted amounts (≈) assume the structure as drawn. Read-outs that look alike come from different tables or passages of the source.

Assays:
C. krusei [1] = assay: MIC against various species, CLSI M27 & M38 (Table 4); conditions: Pichia kudriavzevii, ATCC6258, read-out: Minimum inhibitory concentration 50%
Candida glabrata = assay: MIC against yeast, CLSI M27 & M38 (Table 2); conditions: Nakaseomyces glabratus
C. auris = assay: MIC against various species, CLSI M27 & M38 (Table 4); conditions: Candidozyma auris
C. parapsilosis = assay: as above; conditions: Lodderomyces parapsilosis, ATCC22019, read-out: Minimum inhibitory concentration 50%
Candida auris = assay: MIC against yeast, CLSI M27 & M38 (Table 2); conditions: Candidozyma auris
C. albicans = assay: MIC against various species, CLSI M27 & M38 (Table 4); conditions: Candida albicans
C. krusei [2] = assay: MIC against yeast, CLSI M27 & M38 (Table 2); conditions: Pichia kudriavzevii, ATCC6258, read-out: Minimum inhibitory concentration 50%
Cryptococcus neoformans = assay: MIC against yeast, CLSI M27 & M38 (Table 2); conditions: Cryptococcus neoformans
Candida parapsilosis = assay: MIC against yeast, CLSI M27 & M38 (Table 2); conditions: for Minimum inhibitory concentration 50%: Table 2, RPMI 0.165M MOPS, 24-72 hours; for MIC: Lodderomyces parapsilosis
Candida guillermondii = assay: MIC against yeast, CLSI M27 & M38 (Table 2); conditions: Candida

OC(Cn1cncn1)(Cn1cncn1)c1ccc(F)cc1F [Fluconazole, reference compound]
MIC (C. krusei [1]): > 16 mg/L | MIC (Candida glabrata; read-out: Minimum inhibitory concentration 50%, Candida glabrata CG1, RPMI 0.165M MOPS, 24-72 hours): > 64 mg/L | MIC (Candida glabrata; read-out: Minimum inhibitory concentration 50%, Candida glabrata CG2, RPMI 0.165M MOPS, 24-72 hours): 8 mg/L (≈ 26.1 µM) | MIC (Candida glabrata; read-out: Minimum inhibitory concentration 50%, Candida glabrata CG3, RPMI 0.165M MOPS, 24-72 hours): 64 mg/L (≈ 209 µM) | MIC (C. auris; read-out: Minimum inhibitory concentration 50%, C. auris DI17-46, RPMI 0.165M MOPS, 24-72 hours): > 64 mg/L | MIC (C. auris; read-out: Minimum inhibitory concentration 50%, C. auris DI17-47, RPMI 0.165M MOPS, 24-72 hours): > 64 mg/L | MIC (C. auris; read-out: Minimum inhibitory concentration 50%, C. auris DI17-48, RPMI 0.165M MOPS, 24-72 hours): 2 mg/L (≈ 6.53 µM) | MIC (C. parapsilosis): 1 mg/L (≈ 3.27 µM) | MIC (Candida auris; read-out: Minimum inhibitory concentration 50%, Candida auris CAU1, RPMI 0.165M MOPS, 24-72 hours): 2 mg/L (≈ 6.53 µM) | MIC (Candida auris; read-out: Minimum inhibitory concentration 50%, Candida auris CAU2, RPMI 0.165M MOPS, 24-72 hours): 1 mg/L (≈ 3.27 µM) | MIC (Candida auris; read-out: Minimum inhibitory concentration 50%, Candida auris CAU3, RPMI 0.165M MOPS, 24-72 hours): 0.5 mg/L (≈ 1.63 µM) | MIC (Candida auris; read-out: Minimum inhibitory concentration 50%, Candida auris CAU4, RPMI 0.165M MOPS, 24-72 hours): > 64 mg/L | MIC (Candida auris; read-out: Minimum inhibitory concentration 50%, Candida auris CAU5, RPMI 0.165M MOPS, 24-72 hours): 16 mg/L (≈ 52.2 µM) | MIC (Candida auris; read-out: Minimum inhibitory concentration 50%, Candida auris CAU6, RPMI 0.165M MOPS, 24-72 hours): 2 mg/L (≈ 6.53 µM) | MIC (Candida auris; read-out: Minimum inhibitory concentration 50%, Candida auris CAU7, RPMI 0.165M MOPS, 24-72 hours): 2 mg/L (≈ 6.53 µM) | MIC (Candida auris; read-out: Minimum inhibitory concentration 50%, Candida auris DI17-46, RPMI 0.165M MOPS, 24-72 hours): > 64 mg/L | MIC (Candida auris; read-out: Minimum inhibitory concentration 50%, Candida auris DI17-47, RPMI 0.165M MOPS, 24-72 hours): > 64 mg/L | MIC (Candida auris; read-out: Minimum inhibitory concentration 50%, Candida auris DI17-48, RPMI 0.165M MOPS, 24-72 hours): 2 mg/L (≈ 6.53 µM) | MIC (C. albicans; read-out: Minimum inhibitory concentration 50%, C. albicans CA1, RPMI 0.165M MOPS, 24-72 hours): ≤ 0.125 mg/L | MIC (C. albicans; read-out: Minimum inhibitory concentration 50%, C. albicans CA2, RPMI 0.165M MOPS, 24-72 hours): ≤ 0.125 mg/L | MIC (C. albicans; read-out: Minimum inhibitory concentration 50%, C. albicans CA3, RPMI 0.165M MOPS, 24-72 hours): > 64 mg/L | MIC (C. krusei [2]): 16 mg/L (≈ 52.2 µM) | MIC (Cryptococcus neoformans; read-out: Minimum inhibitory concentration 50%, Cryptococcus neoformans CN1, RPMI 0.165M MOPS, 24-72 hours): 8 mg/L (≈ 26.1 µM) | MIC (Cryptococcus neoformans; read-out: Minimum inhibitory concentration 50%, Cryptococcus neoformans H99, RPMI 0.165M MOPS, 24-72 hours): 16 mg/L (≈ 52.2 µM) | MIC (Cryptococcus neoformans; read-out: Minimum inhibitory concentration 50%, Cryptococcus neoformans USC1597, RPMI 0.165M MOPS, 24-72 hours): 2 mg/L (≈ 6.53 µM) | Minimum inhibitory concentration 50% (Candida parapsilosis; Candida parapsilosis CP2): 0.5 mg/L (≈ 1.63 µM) | Minimum inhibitory concentration 50% (Candida parapsilosis; Candida parapsilosis CP3): 0.5 mg/L (≈ 1.63 µM) | MIC (Candida parapsilosis; ATCC22019, read-out: Minimum inhibitory concentration 50%): 1 mg/L (≈ 3.27 µM) | MIC (Candida parapsilosis; read-out: Minimum inhibitory concentration 50%): 0.5 mg/L (≈ 1.63 µM) | MIC (Candida guillermondii; read-out: Minimum inhibitory concentration 50%, Candida guillermondii CGUI1, RPMI 0.165M MOPS, 24-72 hours): 1 mg/L (≈ 3.27 µM) | MIC (Candida guillermondii; read-out: Minimum inhibitory concentration 50%, Candida guillermondii CGUI2, RPMI 0.165M MOPS, 24-72 hours): 2 mg/L (≈ 6.53 µM) | MIC (Candida guillermondii; read-out: Minimum inhibitory concentration 50%, Candida guillermondii CGUI3, RPMI 0.165M MOPS, 24-72 hours): 2 mg/L (≈ 6.53 µM)
